Test results as given in article PMC10823733, “Promising antibacterial efficacy of arenicin peptides against the emerging opportunistic pathogen Mycobacterium abscessus” (Journal of Biomedical Science, 2024).
Like-named read-outs stand apart in the source and are kept apart here. Positions of bridges follow the written chain, without caps; N, C: chain ends. Non-standard residues stand in square brackets, D forms with d. Residues, ends and D or L forms follow the SMILES beside them. Abu = CC[C@H](N)C(=O)O

Experiments:
[1] = system: M. abscessus CIP 104536 T S variant; assay: microbe, parasite or virus in culture; format: cell-based, Mycobacterium abscessus
Description: (§1) Mycobacterium abscessus S and R strains (CIP 104536^ T) were grown in Middlebrook 7H9 medium supplemented with 0.05% (v/v) Tween 80, 0.2% (v/v) glycerol and 10% (v/v) oleic acid–albumin–dextrose–catalase (OADC enrichment; BD Difco) (7H9-S^OADC) at 37 °C under stirring (200 rpm). We used Ar-1 (RWC^3VYAYVRVRGVLVRYRRC^20W) and Ar-1-Abu, in which the cysteines in position 3 and 20 were replaced by alpha-amino-n-butyric acid (Abu) residues. We also tested Ar-2 (RWC^3VYAYVRIRGVLVRYRRC^20W), Ar-2-Abu (cysteines 3 and 20 replaced), Ar-3 (GFC^3WYVC^7VYRNGVRVC^16YRRC^20N), Ar-3-Abu (all four cysteines were replaced by Abu), Ar-3(3–20) (cysteines 7 and 16 replaced), and Ar-3(7–16) (cysteines 3 and 20 replaced). All arenicins and arenicin-Abu derivatives were obtained from GenScript (Piscataway, NJ, USA) with purity higher than 95%.
(§2) For determining the antimicrobial activity of the different peptides, the Middlebrook 7H9 broth microdilution method was used in sterile 96-well flat-bottom Greiner Bio-One polypropylene microplates with lid (Thermo Fisher Scientific) using the resazurin microtiter assay (REMA). Briefly, Mycobacterium abscessus was cultured up to mid log-phase (OD600 ~ 1.5–2) and diluted to a cell density of 5 × 10^6 cells/mL in 7H9-S^OADC. Then, 100 µL of this above inoculum was distributed to each well containing serial two-fold dilutions of arenicin, arenicin derivative or controls to a final volume of 200 µL. Growth controls containing no peptide (i.e., bacteria only = B), inhibition controls containing 50 µg/mL kanamycin (Euromedex, Souffelweyersheim, France) and sterility controls (i.e., medium only) without bacteria were included. After 5 days incubation at 37° C in a humidity chamber to prevent evaporation, 20 µL of a 0.025% (w/v) resazurin solution was added to each well. The microplate was re-incubated until appearance of a color change from blue to pink in the control well (i.e., bacteria without antibiotics). Fluorescence of the metabolite resorufin (λex/λem = 530/590 nm) was measured using a Tecan Spark 10 M ™ multimode microplate reader (Tecan Group Ltd, France). Relative fluorescence units (RFU) were defined as: RFU% = (test well FU/mean FU of control B wells) × 100. MIC50 and MIC90 values were determined by fitting the RFU% sigmoidal dose–response curves in Kaleidagraph 4.2 software (Synergy Software, Reading, PA). The concentration of peptide leading to 50% and 90% inhibition of M. abscessus growth was defined as the MIC50 and MIC90, respectively. All experiments were performed independently at least three times.

[2] = system: M. abscessus CIP 104536 T R variant; assay: microbe, parasite or virus in culture; format: cell-based, Mycobacterium abscessus
Description: as §1, §2

[3] = format: cell-based, human
Description: (§3) The toxicity of each peptide was evaluated on human cell lines using a resazurin assay as previously described. Human lung epithelial cells BEAS-2B (ATCC CRL-9609), liver cells HepG2 (ATCC HB-8065), and kidney cells A498 (ATCC HTB-44) were used. All cells were cultured in Dulbecco's modified essential medium (DMEM) supplemented with 10% heat-inactivated fetal calf serum (FBS, Thermo Fisher Scientific), and 1% L-glutamine (Thermo Fisher Scientific) (DMEM^FBS) at 37 °C in a 5% CO2 incubator to subconfluent concentrations. Cells were detached with trypsin–EDTA solution (Thermo Fisher Scientific), and around 1 × 10^4 cells/well were seeded in 96-well flat-bottom microplates (Greiner Bio-One) with a lid, and cultured for additional 48–72 h at 37 °C and 5% CO2 until cell confluence. The medium was removed, and 100 µL of serial two-fold dilutions of the peptides in DMEM^FBS were added to each well. Following a 48 h-incubation period at 37 °C and 5% CO2, cell viability was evaluated using the resazurin assay as described above. Fluorescence of the resazurin metabolite resorufin (λex/λem = 530/590 nm) was measured after 2 h incubation at 37 °C and 5% CO2 in the dark, with a microplate reader (Biotek, Synergy Mx, Colmar, France). The cytotoxic concentration of peptide leading to 50% cell death as compared to the control was defined as the CC50, and was determined by fitting the RFU% sigmoidal dose–response curves in Kaleidagraph 4.2 software (Synergy Software). All experiments were conducted in triplicate.

human erythrocytes = format: cell-based
Description: The hemolytic activity of each peptide was determined as previously described. Briefly, human erythrocytes (red blood cells, hRBC; Divbioscience, Ulvenhout, Netherlands) were washed 2-times with sterile phosphate buffered saline (PBS; Thermo Fisher Scientific) and pelleted by centrifugation at 800 rpm for 5 min; then resuspended in DMEM^FBS to a final erythrocyte concentration of 8% (v/v). Then, 100 µL of this hRBC solution was distributed to each well of sterile 96-well flat-bottom microplates (Greiner Bio-One) containing serial two-fold dilutions of arenicin, arenicin-Abu derivative or controls in DMEM^FBS to a final volume of 200 µL. After 1 h incubation at 37 °C, microplates were centrifuged at 800 rpm for 5 min. Then, 100 µL of supernatant were carefully transferred to a new 96-well microplate, and OD405 corresponding to the release of hemoglobin was measured using a microplate reader (Biotek, Synergy Mx, Colmar, France). DMEM^FBS and Triton-X100 at 0.1% (v/v) were used as negative (i.e., 0% hemolysis) and positive (i.e., 100% hemolysis) controls, respectively. The concentration of peptide leading to 10% and 50% of hemolysis compared to the positive control was defined as the HC10 and HC50, respectively, and was determined by fitting the dose–response curves in Kaleidagraph 4.2 software (Synergy Software). All experiments were done in triplicate.

[4] = Cytotoxic assay on human cells (resazurin); format: cell-based; conditions: A498, 48 h exposure
Description: as §3

[5] = format: cell-based, human; remark: listed apart in the source
Description: as §3

[6] = Mycobacteroides abscessus, CIP104536, 120 h
[7] = S variant, 50% inhibition of in vitro growth, REMA, 5 days
[8] = S variant, 90% inhibition of in vitro growth, REMA, 5 days

Structure (SMILES)	MIC50 [1, 6] [µM]	MIC90 [1, 6] [µM]	MIC50 [2, 6] [µM]	MIC90 [2, 6] [µM]	CC50 [3] [µM]	HC10 (human erythrocytes; red cells of human, 1 h) [µM]	HC50 (human erythrocytes; red cells of human, 1 h) [µM]	CC50 [4] [µM]	CC50 [5] [µM]	HC50 (human erythrocytes) [µM]	MIC50 [1, 7] [µM]	MIC90 [1, 8] [µM]	hemolytic activity on human erythrocytes (in words, considering HC10) (human erythrocytes)	MIC50 ([2]; R variant, 50% inhibition of in vitro growth, REMA, 5 days) [µM]	MIC90 ([2]; R variant, 90% inhibition of in vitro growth, REMA, 5 days) [µM]
NCC[C@H](O)C(=O)N[C@@H]1C[C@H](N)[C@@H](O[C@H]2O[C@H](CN)[C@@H](O)[C@H](O)[C@H]2O)[C@H](O)[C@H]1O[C@H]1O[C@H](CO)[C@@H](O)[C@H](N)[C@H]1O [AMK, amikacin, reference compound]	3.9 ± 0.19	5.8	7.4 ± 0.26	10.1											
CC[C@H](NC(=O)[C@H](CCCNC(=N)N)NC(=O)[C@H](CCCNC(=N)N)NC(=O)[C@H](Cc1ccc(O)cc1)NC(=O)[C@H](CCCNC(=N)N)NC(=O)[C@@H](NC(=O)[C@H](CC(C)C)NC(=O)[C@@H](NC(=O)CNC(=O)[C@H](CCCNC(=N)N)NC(=O)[C@@H](NC(=O)[C@H](CCCNC(=N)N)NC(=O)[C@@H](NC(=O)[C@H](Cc1ccc(O)cc1)NC(=O)[C@H](C)NC(=O)[C@H](Cc1ccc(O)cc1)NC(=O)[C@@H](NC(=O)[C@H](CC)NC(=O)[C@H](Cc1c[nH]c2ccccc12)NC(=O)[C@@H](N)CCCNC(=N)N)C(C)C)C(C)C)[C@@H](C)CC)C(C)C)C(C)C)C(=O)N[C@@H](Cc1c[nH]c2ccccc12)C(=O)O [Ar-2-Abu] (H-RW[Abu]VYAYVRIRGVLVRYRR[Abu]W-OH)					> 100	15.4 ± 1.0	> 100	92.1 ± 2.3	> 100						
CC[C@H](C)[C@@H]1NC(=O)[C@H](CCCNC(=N)N)NC(=O)[C@H](C(C)C)NC(=O)[C@H](Cc2ccc(O)cc2)NC(=O)[C@H](C)NC(=O)[C@H](Cc2ccc(O)cc2)NC(=O)[C@H](C(C)C)NC(=O)[C@@H](NC(=O)[C@H](Cc2c[nH]c3ccccc23)NC(=O)[C@@H](N)CCCNC(=N)N)CSSC[C@@H](C(=O)N[C@@H](Cc2c[nH]c3ccccc23)C(=O)O)NC(=O)[C@H](CCCNC(=N)N)NC(=O)[C@H](CCCNC(=N)N)NC(=O)[C@H](Cc2ccc(O)cc2)NC(=O)[C@H](CCCNC(=N)N)NC(=O)[C@H](C(C)C)NC(=O)[C@H](CC(C)C)NC(=O)[C@H](C(C)C)NC(=O)CNC(=O)[C@H](CCCNC(=N)N)NC1=O [Ar-2] (H-RWCVYAYVRIRGVLVRYRRCW-OH; disulfide 3-20)					> 100	4.9 ± 0.7		37.7 ± 1.1	> 100	29.2					
CC[C@@H]1NC(=O)[C@H](C(C)C)NC(=O)[C@H](CCCNC(=N)N)NC(=O)[C@H](C(C)C)NC(=O)CNC(=O)[C@H](CC(N)=O)NC(=O)[C@H](CCCNC(=N)N)NC(=O)[C@H](Cc2ccc(O)cc2)NC(=O)[C@H](C(C)C)NC(=O)[C@H](CC)NC(=O)[C@H](C(C)C)NC(=O)[C@H](Cc2ccc(O)cc2)NC(=O)[C@H](Cc2c[nH]c3ccccc23)NC(=O)[C@@H](NC(=O)[C@H](Cc2ccccc2)NC(=O)CN)CSSC[C@@H](C(=O)N[C@@H](CC(N)=O)C(=O)O)NC(=O)[C@H](CCCNC(=N)N)NC(=O)[C@H](CCCNC(=N)N)NC(=O)[C@H](Cc2ccc(O)cc2)NC1=O [Ar-3(3–20)] (H-GFCWYV[Abu]VYRNGVRV[Abu]YRRCN-OH; disulfide 3-20)					> 100	> 100	> 100	42 ± 1.3	> 100		48.3	> 100	totally inactive		
CC[C@H](NC(=O)[C@H](CCCNC(=N)N)NC(=O)[C@H](CCCNC(=N)N)NC(=O)[C@H](Cc1ccc(O)cc1)NC(=O)[C@@H]1CSSC[C@H](NC(=O)[C@@H](NC(=O)[C@H](Cc2ccc(O)cc2)NC(=O)[C@H](Cc2c[nH]c3ccccc23)NC(=O)[C@H](CC)NC(=O)[C@H](Cc2ccccc2)NC(=O)CN)C(C)C)C(=O)N[C@@H](C(C)C)C(=O)N[C@@H](Cc2ccc(O)cc2)C(=O)N[C@@H](CCCNC(=N)N)C(=O)N[C@@H](CC(N)=O)C(=O)NCC(=O)N[C@@H](C(C)C)C(=O)N[C@@H](CCCNC(=N)N)C(=O)N[C@@H](C(C)C)C(=O)N1)C(=O)N[C@@H](CC(N)=O)C(=O)O [Ar-3(7–16)] (H-GF[Abu]WYVCVYRNGVRVCYRR[Abu]N-OH; disulfide 7-16)					> 100	41.1 ± 4.3	> 100	37.7 ± 1.2	> 100						
CC[C@H](NC(=O)[C@H](CCCNC(=N)N)NC(=O)[C@H](CCCNC(=N)N)NC(=O)[C@H](Cc1ccc(O)cc1)NC(=O)[C@H](CC)NC(=O)[C@@H](NC(=O)[C@H](CCCNC(=N)N)NC(=O)[C@@H](NC(=O)CNC(=O)[C@H](CC(N)=O)NC(=O)[C@H](CCCNC(=N)N)NC(=O)[C@H](Cc1ccc(O)cc1)NC(=O)[C@@H](NC(=O)[C@H](CC)NC(=O)[C@@H](NC(=O)[C@H](Cc1ccc(O)cc1)NC(=O)[C@H](Cc1c[nH]c2ccccc12)NC(=O)[C@H](CC)NC(=O)[C@H](Cc1ccccc1)NC(=O)CN)C(C)C)C(C)C)C(C)C)C(C)C)C(=O)N[C@@H](CC(N)=O)C(=O)O [Ar-3-Abu] (H-GF[Abu]WYV[Abu]VYRNGVRV[Abu]YRR[Abu]N-OH)					> 100	39.3 ± 3.2	> 100	36.6 ± 0.9	> 100		> 100	> 100		> 100	> 100
CC(C)[C@@H]1NC(=O)CNC(=O)[C@H](CC(N)=O)NC(=O)[C@H](CCCNC(=N)N)NC(=O)[C@H](Cc2ccc(O)cc2)NC(=O)[C@H](C(C)C)NC(=O)[C@@H]2CSSC[C@H](NC(=O)[C@H](C(C)C)NC(=O)[C@H](CCCNC(=N)N)NC1=O)C(=O)N[C@@H](Cc1ccc(O)cc1)C(=O)N[C@@H](CCCNC(=N)N)C(=O)N[C@@H](CCCNC(=N)N)C(=O)N[C@H](C(=O)N[C@@H](CC(N)=O)C(=O)O)CSSC[C@H](NC(=O)[C@H](Cc1ccccc1)NC(=O)CN)C(=O)N[C@@H](Cc1c[nH]c3ccccc13)C(=O)N[C@@H](Cc1ccc(O)cc1)C(=O)N[C@@H](C(C)C)C(=O)N2 [Ar-3] (H-GFCWYVCVYRNGVRVCYRRCN-OH; disulfide 3-20, 7-16)					> 100	30.3 ± 2.5	> 100	46.7 ± 1.7	> 100		5.3	12.2			
